Data published in a melting point compilation (Tetko et al.; mined from patent text by program, amines drawn as free bases though some values may be those of a salt).

SMILES	melting point
N#Cc1ccc(C2NCCc3ccccc32)cc1 (racemic)	114 to 115 °C
CCc1cc(C(=O)c2ccccc2Cl)c(-n2c(C)nnc2CNC(=O)/C=C/c2ccccc2N)s1	141 to 143 °C
Cc1cc(-c2cccc(C3=Nc4ccc(-c5ccccc5F)cc4NC(=O)C3)c2)on1	222 to 224 °C
CC(C)(C)NS(=O)(=O)c1ccc([Si](C)(C)C)s1	102 to 104 °C
O=C1CSCC(=O)NCCOCCN1	186 to 188 °C
CCc1c(-c2ccc(O)cc2)c2cc(COCCN3CCCCC3)c3cccc1n32	132 to 134 °C
O=c1cc(C(F)(F)F)c2ccc(NCc3ccccc3)cc2o1	136 to 137 °C
c1ccc(Nc2nc(NC3CCC3)c3[nH]cnc3n2)cc1	312 to 314 °C
Cc1c(C)c2c(c(C)c1O)SC(C)(c1ccccc1)O2 (centres undefined)	80 to 81 °C
CC12CCC3C(CCC4CC5OC5CC43C)C1CC(N1CCCC1)C2=O (centres undefined)	146 °C
CCOCn1c(C(OC(C)=O)c2ccccc2)c(C(C)C)c(=O)[nH]c1=O (centres undefined)	158 °C
CC(C)[C@H](NC(=O)OCc1ccccn1)C(=O)N[C@@H](Cc1ccccc1)C[C@H](O)[C@H](Cc1ccccc1)NC(=O)[C@@H](NC(=O)OCc1ccccn1)C(C)C	220 to 222 °C
O=C1N(Cc2ccccn2)c2cccc(-c3ccc(Oc4ccccc4)cc3)c2C12COc1cc3c(cc12)OCCO3 (centres undefined)	196 to 199 °C
C=C(C)C(=O)OC(COc1ccc(C(=O)c2ccccc2)c(O)c1)COc1ccc(C(=O)c2ccccc2)c(O)c1	138 to 139 °C
Cc1ccc(C(NC(N)=S)c2ccccc2)cc1 (centres undefined)	167 to 168 °C
CCCCCCCCCCCCCCCCCCOc1cn(CCC)c(CO)cc1=O	120 to 121 °C
CC1C(=O)NCC1C(N)=O (centres undefined)	169 to 171 °C
CC(=O)OC1N=C(c2ccccc2)c2cc(Cl)ccc2-n2c1cnc2C (centres undefined)	200 to 201 °C
Oc1ccc2c(c1)COc1c-2cc2ccc(O)cc2c1-c1ccoc1	216 to 218 °C
CC(C)(Oc1ccc(OCCOc2cc(C(C)(C)C)c(O)c(C(C)(C)C)c2)cc1)C(=O)O	124 °C
CCN(CC)C(=CC1=NCCCC1)c1ccccc1	169 to 170 °C

SMILES	melting point
O=C(CCl)NNC1=Nc2ccc(Cl)cc2N(c2ccccc2)C(=O)C1	210 to 215 °C
CC(=NN)c1ccc2c(c1)C(C(Cl)(Cl)Cl)OC(C(Cl)(Cl)Cl)O2 (centres undefined)	159 °C
CCC(CC)OC(=O)c1ccc(C(=O)NS(=O)(=O)c2ccc(C(=O)NCCc3ccccc3)cc2)cn1	234 to 235 °C
CCOc1ccc(OCc2cccc(OCc3nc(-c4ccccc4)oc3C)c2)cc1CCC(=O)O	136 to 137 °C
CCCCCCCCCCCCCCCCOc1c2ncnc(SCC(=O)OCCCC)c2nn1C	64 to 67 °C
Cc1c(NC(=O)CC(C)(C)C)cc2c(c1C)OC(C)(C)C2(O)c1cccc(C=O)c1 (centres undefined)	189 to 190 °C
CC(C)CCCC(C)C1CCC2C3CC=C4CC(I)CCC4(C)C3CCC12C (centres undefined)	106 °C
COCCc1ccc(-c2ccc3c(c2)C=C(C(=O)Nc2ccc(CN(C)C4CCOCC4)cc2)CCS3(=O)=O)cc1	216 to 219 °C
CN(C)CC(O)COc1ccc2c(c1)OC(C)(C)CC2c1cccc2ccccc12 (centres undefined)	123 to 125 °C
Fc1ccc(C=Nc2c3c(nc4ccccc24)CCCC3)cc1	161 to 163 °C
CCN(CC)C(=O)N1SN(C(C)C)C(=O)c2ccccc21	103 to 104 °C
O=[N+]([O-])C=Cc1cn(-c2ccccc2)c2ccccc12	154 to 155 °C
CC=CC(=O)C1C(C)C(=O)CCC1(C)C (centres undefined)	76 to 77 °C
Brc1cc(Br)cc(Cc2cccnc2)c1	70 to 72 °C
CC(C)(C)OC(=O)N1CCc2c(/C=C/[N+](=O)[O-])c3ccccc3n2CC1	227 to 230 °C
CC(=O)NCCc1ccc(CN2CCN(c3ccccc3)CC2)cc1	117 to 118 °C
O=C(NP(=O)(O)CCc1ccccc1)OCc1ccccc1	110 °C
CCCCCCCCCCCCCCc1ccc(OCC2COC(C)(C)O2)c(CC)c1 (centres undefined)	34 to 38 °C
C=CCN(C1=NCCN1C)c1c(Cl)cccc1Cl	59 to 61 °C
COc1ccc2c(c1)cc(Cc1cc3cc(OC)ccc3n1S(=O)(=O)c1ccccc1)n2S(=O)(=O)c1ccccc1	159 to 160 °C

More lines, now with the values ahead:

melting point	SMILES
51 to 54 °C	Fc1cccc(Cc2cncnc2N2CCCC2)c1
194 to 196 °C	NC(=O)CC(CC(N)=O)c1cccc(Cl)c1Cl
118 to 120 °C	COc1ccc2c(Cc3nc4c(F)c(F)cc(F)c4s3)cn(CC(=O)O)c2c1
204 to 206 °C	COCc1nc(N)nc(N)c1-c1ccc(Cl)c(Cl)c1
190 to 191 °C	COc1ccc(Oc2nccc(-c3c(-c4ccc(F)cc4)ncn3C3CCNCC3)n2)cc1
154 °C	COC(=O)CCC#Cc1cc(Cl)ccc1NS(=O)(=O)c1ccc2c(c1)CCN2C(C)=O
91 to 92 °C	Cc1cccc2c(-c3ccc(F)cc3)nccc12
190 to 191 °C	CC(C)n1nc(-c2sc(C(=O)NCc3ccccn3)nc2-c2ccccc2F)ccc1=O
149 to 151 °C	CCN(CC)c1cccc2nc3n(c12)CC(N)CCN3c1ccc(Cl)cc1Cl (centres undefined)
181 to 182 °C	Cc1cc(C)c2c(=O)[nH]c(-c3cc(C)c(OCCN4CCCC4)c(C)c3)nc2c1
210 °C	Nc1nc(OCCC2CCCCC2)c2[nH]cnc2n1
190 to 192 °C	Cc1c(-c2ccncc2)nc2n(c1=O)CCCN2CC(=O)c1ccccc1
147 to 148 °C	O=S(=O)(c1ccc(Cl)cc1)C(c1cc(F)ccc1F)c1cc(Cl)ncc1Cl (centres undefined)
140 to 145 °C	O=C(Nc1ccnn1-c1c(Cl)cc(C(F)(F)F)c(Cl)c1Cl)C(F)(F)F
194 °C	O=C(Nc1cc2nc(-c3ccc(C(=O)C4CCCCCC4)cc3)[nH]c2cn1)C1CCCCCC1
84 to 86 °C	Cc1oc(-c2ccc(C(F)(F)F)cc2)nc1COc1cccc(C#CC(C)n2oc(=O)[nH]c2=O)c1 (centres undefined)
135 to 139 °C	COc1nc(-n2ncc(C#N)c2N)c(Cl)cc1C(F)(F)F
90 to 92 °C	CCOC(=O)CCOc1cccc2c1CCC2=O
219 °C	CN1CCN(c2ccc(-c3cnc4c(c3)N(Cc3c(F)ccc(F)c3Cl)CCN4)cn2)CC1
84 to 85 °C	Cc1c(Cl)cc(Cl)cc1Br

melting point	SMILES
155 to 156 °C	Cc1cnn(-c2ccc(C(=O)N3Cc4cccn4Cc4ccccc43)c(Cl)n2)c1
45 to 46 °C	COCCCc1nc(C(F)F)ccc1C(=O)C1C(=O)C2CCC(C2)C1=O (centres undefined)
173 to 174 °C	COc1ccc(COc2cccc(C(=O)Nc3ccc(S(C)(=O)=O)cc3)c2)cc1
115 to 117 °C	Cc1cc(-c2cc(COS(C)(=O)=O)c(=O)n(CC(C)C)n2)ccc1F
96 to 98 °C	COC1C(=O)NC=C1Cl (centres undefined)
120 to 125 °C	Cc1ccc(C(N)=S)cc1C
152 to 153 °C	O=C(N[C@@H]1CCc2ccccc21)C(F)(F)F
188 to 189 °C	O=C(O)c1cc(NCc2ccccc2)c(-c2ccccc2)c([N+](=O)[O-])c1
89 to 90 °C	CCOC(=O)c1oc2ccccc2c1N=CN(C)C
192 to 193 °C	C#CCNC(=O)c1cc(C(=O)OC)c(O)c2ncc(Cc3ccc(F)cc3)cc12
155 to 158 °C	CO[C@@H]1C=C2C=C3C(=C(C)C(=O)N3C)C[C@]2(C)[C@@H](C)[C@H]1OC(=O)c1ccco1
208 °C	Cc1oncc1C(=O)N1CCN(c2ccc(NC(=O)c3cnn(-c4ccc(F)cc4)c3C)cc2C#N)CC1
311 to 312 °C	O=C(O)c1cc(-n2c(=O)cc(C(F)(F)F)[nH]c2=O)ccc1Cl
72 to 75 °C	COc1ncccc1C(=O)NCC1CCN(C[C@H]2COc3ccc(Cl)cc3O2)CC1
150 °C	CCOC(=O)c1cn(CC)c2nc(N3CCN(Cc4ccc(Cl)cc4)CC3)ncc2c1=O
236 to 238 °C	Cc1nc(N)nc(N)c1-c1cc(Cl)cc(Cl)c1Cl
186 to 188 °C	O=C(NCCn1cncn1)c1ccc(Cl)nc1
116 to 122 °C	CN(C)c1nc(CSCCNC2=NS(=O)N=C2N)cs1 (centres undefined)
142 to 143 °C	COc1ccc2cc(I)ccc2c1
165 to 168 °C	CCCc1c2nc(C(=O)OCC)cc(C)c2cc2c(=O)cc(C(=O)OCC)oc12

melting point	SMILES
60 to 63 °C	CCOC(=O)COc1cccc2c1CC(Br)C2=O (centres undefined)
197 to 198 °C	O=C(N[C@H](Cc1ccc(C(F)(F)F)cc1)[C@@H](O)c1ccc(F)c(F)c1)c1ccc(F)c2ccccc12 (racemic)
192 to 221 °C	CC1Oc2ccc(CN3CCN(c4nc(-c5ccccc5)ns4)CC3)cc2NC1=O (centres undefined)
105 to 108 °C	CSCC1COCc2nc3c(N)nc4ccccc4c3n21 (centres undefined)
123 to 124 °C	C#CCOc1cc(-c2nn(C)c(S(C)(=O)=O)c2C)c(F)cc1Cl
160 to 161 °C	O=[N+]([O-])c1cnc2ccc(Br)cn12
164 to 165 °C	Nc1ccc(C#Cc2nc(F)c(F)c(F)c2F)c(C#Cc2nc(F)c(F)c(F)c2F)c1
145 to 148 °C	CC(C#N)c1ccc(C(=O)c2ccc(Cl)cc2)n1C (centres undefined)
157 to 160 °C	COc1cc(OC)c(-c2cc3ccccc3n2C)cc1C=CC(=O)c1ccc(C(=O)O)cc1
104 to 105 °C	NC1=CN(Cc2ccc(Cl)cc2Cl)CN=C1
189 to 190 °C	COc1ccc2c3c(cn2S(=O)(=O)c2ccc(C)cc2)CC(NC(=O)C(F)(F)F)C(=O)c13 (centres undefined)
196 to 200 °C	CCc1nn(Cc2cccnn2)c(C(N)=O)c1NC(=O)c1cc(S(C)(=O)=O)ccc1OCC(C)C
258 to 262 °C	CCOP(=O)(OCC)c1cc2cc([N+](=O)[O-])c(Cl)cc2[nH]c1=O
93 to 95 °C	CCCOc1nc2c(Cl)scc2c(=O)n1CCC
120 to 122 °C	O=C(COc1ncccn1)NC1CCN(Cc2ccc(Cl)c(Cl)c2)CC1
128 to 130 °C	COc1ccc2oc3ccccc3c(=O)c2c1
198 to 201 °C	CCC1c2cccn2-c2ccc(Cl)cc2N1C(=O)c1ccc(O)cc1O (centres undefined)
137 to 138 °C	CCC(=O)N1Cc2cn(C)nc2-c2cc(Cl)ccc21
